{
  "source": "ChEMBL document CHEMBL1649227",
  "about": "“In vitro antiviral activity of V-073 against polioviruses” (Antimicrob Agents Chemother, 2009)",
  "key": {"[1]": {"test_system": "Enterovirus C", "test": "Antiviral activity against Poliovirus 10668 serotype PV1 obtained from immunodeficient chronic excretor infected in […] LLC-MK2 cells assessed as inhibition of viral-replication induced cytopathic effect", "format": "functional, organism-based", "settings": "10668 serotype PV1, LLC-MK2"}, "[2]": {"test_system": "Enterovirus C", "test": "Antiviral activity against Poliovirus 10224 serotype PV1 obtained from immunodeficient chronic excretor infected in […] LLC-MK2 cells assessed as inhibition of viral-replication induced cytopathic effect", "format": "functional, organism-based", "settings": "10224 serotype PV1, LLC-MK2"}, "[3]": {"test_system": "Enterovirus C", "test": "Antiviral activity against Poliovirus 10805 serotype PV3 infected in […] LLC-MK2 cells assessed as inhibition of viral-replication induced cytopathic effect", "format": "functional, organism-based", "settings": "10805 serotype PV3, LLC-MK2"}, "[4]": {"test_system": "Enterovirus C", "test": "Antiviral activity against Poliovirus PV2-P712 serotype PV2 obtained from immunodeficient chronic excretor infected in […] LLC-MK2 cells assessed as inhibition of viral-replication induced cytopathic effect", "format": "functional, organism-based"}, "[5]": {"test_system": "Enterovirus C", "test": "Antiviral activity against Poliovirus 10220 serotype PV2 obtained from circulating vaccine infected in […] LLC-MK2 cells assessed as inhibition of viral-replication induced cytopathic effect", "format": "functional, organism-based", "settings": "10220 serotype PV2, LLC-MK2"}, "[6]": {"test_system": "HeLa", "test": "Cytotoxicity against human HeLa cells after 18 to 24 hrs by MTT assay", "format": "cell-based"}, "[7]": {"test_system": "Coxsackievirus B4", "test": "Antiviral activity against Coxsackievirus serotype B4 infected in african green monkey BGMK cells assessed as inhibition of virus induced cytopathic effect after 18 to 24 hrs", "format": "functional, organism-based", "settings": "Enterovirus B"}, "[8]": {"test_system": "Enterovirus C", "test": "Antiviral activity against Poliovirus 10225 serotype PV1 obtained from immunodeficient chronic excretor infected in […] LLC-MK2 cells assessed as inhibition of viral-replication induced cytopathic effect", "format": "functional, organism-based", "settings": "10225 serotype PV1, LLC-MK2"}, "[9]": {"test_system": "Coxsackievirus B5", "test": "Antiviral activity against Coxsackievirus serotype B5 infected in african green monkey BGMK cells assessed as inhibition of virus induced cytopathic effect after 18 to 24 hrs", "format": "functional, organism-based", "settings": "Enterovirus B"}, "[10]": {"test": "Selectivity index, ratio of CC50 for african green monkey BGMK cells to EC50 for poliovirus", "format": "toxicity, cell-based", "settings": "read-out: Ratio CC50/EC50"}, "[11]": {"test_system": "Enterovirus C", "test": "Antiviral activity against Poliovirus 10232 serotype PV2 obtained from circulating vaccine infected in […] LLC-MK2 cells assessed as inhibition of viral-replication induced cytopathic effect", "format": "functional, organism-based", "settings": "10232 serotype PV2, LLC-MK2"}, "[12]": {"test_system": "Enterovirus C", "test": "Antiviral activity against Poliovirus 10804 serotype PV3 obtained from immunodeficient chronic excretor infected in […] LLC-MK2 cells assessed as inhibition of viral-replication induced cytopathic effect", "format": "functional, organism-based", "settings": "10804 serotype PV3, LLC-MK2"}, "[13]": {"test_system": "Enterovirus C", "test": "Antiviral activity against Poliovirus 10231 serotype PV2 obtained from circulating vaccine infected in […] LLC-MK2 cells assessed as inhibition of viral-replication induced cytopathic effect", "format": "functional, organism-based", "settings": "10231 serotype PV2, LLC-MK2"}, "[14]": {"test_system": "Enterovirus C", "test": "Antiviral activity against Poliovirus 10233 serotype PV2 obtained from circulating vaccine infected in […] LLC-MK2 cells assessed as inhibition of viral-replication induced cytopathic effect", "format": "functional, organism-based", "settings": "10233 serotype PV2, LLC-MK2"}, "[15]": {"test_system": "Enterovirus C", "test": "Antiviral activity against Poliovirus PV3-Leon serotype PV3 vaccine-derived infected in […] LLC-MK2 cells assessed as inhibition of viral-replication induced cytopathic effect", "format": "functional, organism-based"}, "[16]": {"test_system": "Enterovirus C", "test": "Antiviral activity against Poliovirus 10689 serotype PV1 obtained from immunodeficient chronic excretor infected in […] LLC-MK2 cells assessed as inhibition of viral-replication induced cytopathic effect", "format": "functional, organism-based", "settings": "10689 serotype PV1, LLC-MK2"}, "[17]": {"test_system": "Enterovirus C", "test": "Antiviral activity against Poliovirus 10236 serotype PV1 obtained from circulating vaccine infected in […] LLC-MK2 cells assessed as inhibition of viral-replication induced cytopathic effect", "format": "functional, organism-based", "settings": "10236 serotype PV1, LLC-MK2"}, "[18]": {"test_system": "Enterovirus C", "test": "Antiviral activity against Poliovirus 10230 serotype PV2 obtained from circulating vaccine infected in […] LLC-MK2 cells assessed as inhibition of viral-replication induced cytopathic effect", "format": "functional, organism-based", "settings": "10230 serotype PV2, LLC-MK2"}, "[19]": {"test_system": "Enterovirus C", "test": "Antiviral activity against Poliovirus Saukett serotype PV3 infected in […] LLC-MK2 cells assessed as inhibition of viral-replication induced cytopathic effect", "format": "functional, organism-based"}, "[20]": {"test_system": "Enterovirus C", "test": "Antiviral activity against Poliovirus 10694 serotype PV1 obtained from immunodeficient chronic excretor infected in […] LLC-MK2 cells assessed as inhibition of viral-replication induced cytopathic effect", "format": "functional, organism-based", "settings": "10694 serotype PV1, LLC-MK2"}, "[21]": {"test_system": "Enterovirus C", "test": "Antiviral activity against Poliovirus 10229 serotype PV2 obtained from circulating vaccine infected in […] LLC-MK2 cells assessed as inhibition of viral-replication induced cytopathic effect", "format": "functional, organism-based", "settings": "10229 serotype PV2, LLC-MK2"}, "[22]": {"test_system": "Enterovirus C", "test": "Antiviral activity against Poliovirus P712 serotype PV2 vaccine-derived infected in […] LLC-MK2 cells assessed as inhibition of viral-replication induced cytopathic effect", "format": "functional, organism-based"}, "[23]": {"test_system": "Enterovirus C", "test": "Antiviral activity against Poliovirus 10695 serotype PV1 obtained from immunodeficient chronic excretor infected in […] LLC-MK2 cells assessed as inhibition of viral-replication induced cytopathic effect", "format": "functional, organism-based", "settings": "10695 serotype PV1, LLC-MK2"}, "[24]": {"test_system": "Enterovirus C", "test": "Antiviral activity against Poliovirus Mahoney serotype PV1 infected in […] LLC-MK2 cells assessed as inhibition of viral-replication induced cytopathic effect", "format": "functional, organism-based"}, "[25]": {"test_system": "Enterovirus C", "test": "Antiviral activity against Poliovirus MEF-1 serotype PV2 infected in […] LLC-MK2 cells assessed as inhibition of viral-replication induced cytopathic effect", "format": "functional, organism-based", "settings": "MEF-1 serotype PV2, LLC-MK2"}, "[26]": {"test_system": "Enterovirus C", "test": "Antiviral activity against Poliovirus Leon serotype PV3 infected in […] LLC-MK2 cells assessed as inhibition of viral-replication induced cytopathic effect", "format": "functional, organism-based"}, "[27]": {"test_system": "Enterovirus C", "test": "Antiviral activity against Poliovirus 10239 serotype PV1 obtained from circulating vaccine infected in […] LLC-MK2 cells assessed as inhibition of viral-replication induced cytopathic effect", "format": "functional, organism-based", "settings": "10239 serotype PV1, LLC-MK2"}, "[28]": {"test_system": "Enterovirus C", "test": "Antiviral activity against Poliovirus Lansing serotype PV2 infected in […] LLC-MK2 cells assessed as inhibition of viral-replication induced cytopathic effect", "format": "functional, organism-based"}, "[29]": {"test_system": "Enterovirus C", "test": "Antiviral activity against Poliovirus 10241 serotype PV1 obtained from circulating vaccine infected in […] LLC-MK2 cells assessed as inhibition of viral-replication induced cytopathic effect", "format": "functional, organism-based", "settings": "10241 serotype PV1, LLC-MK2"}, "[30]": {"test_system": "Coxsackievirus B1", "test": "Antiviral activity against Coxsackievirus serotype B1 infected in african green monkey BGMK cells assessed as inhibition of virus induced cytopathic effect after 18 to 24 hrs", "format": "functional, organism-based", "settings": "Enterovirus B"}, "[31]": {"test_system": "Enterovirus C", "test": "Antiviral activity against Poliovirus 10693 serotype PV1 obtained from circulating vaccine infected in […] LLC-MK2 cells assessed as inhibition of viral-replication induced cytopathic effect", "format": "functional, organism-based", "settings": "10693 serotype PV1, LLC-MK2"}},
  "data": [
    {"molecule": "COc1ccc(OCc2ccc(COc3c(Cl)cccc3Cl)cc2)c(Cl)c1", "values": [
      {"measurement": "EC50", "setting": "[1]", "value": 21, "unit": "nM"},
      {"measurement": "EC50", "setting": "[2]", "value": 69, "unit": "nM"},
      {"measurement": "EC50", "setting": "[3]", "value": 29, "unit": "nM"},
      {"measurement": "EC50", "setting": "[4]", "value": 16, "unit": "nM"},
      {"measurement": "EC50", "setting": "[5]", "value": 10, "unit": "nM"},
      {"measurement": "Activity", "setting": "[6]", "value": "> 50", "unit": "µg/mL"},
      {"measurement": "EC50", "setting": "[7]", "value": 3790, "unit": "nM"},
      {"measurement": "EC50", "setting": "[8]", "value": 17, "unit": "nM"},
      {"measurement": "EC50", "setting": "[9]", "value": 3790, "unit": "nM"},
      {"measurement": "selectivity ratio", "setting": "[10]", "value": 75},
      {"measurement": "EC50", "setting": "[11]", "value": 19, "unit": "nM"},
      {"measurement": "EC50", "setting": "[12]", "value": 42, "unit": "nM"},
      {"measurement": "EC50", "setting": "[13]", "value": 28, "unit": "nM"},
      {"measurement": "EC50", "setting": "[14]", "value": 24, "unit": "nM"},
      {"measurement": "EC50", "setting": "[15]", "value": 20, "unit": "nM"},
      {"measurement": "EC50", "setting": "[16]", "value": 42, "unit": "nM"},
      {"measurement": "EC50", "setting": "[17]", "value": 29, "unit": "nM"},
      {"measurement": "EC50", "setting": "[18]", "value": 36, "unit": "nM"},
      {"measurement": "EC50", "setting": "[19]", "value": 62, "unit": "nM"},
      {"measurement": "EC50", "setting": "[20]", "value": 14, "unit": "nM"},
      {"measurement": "EC50", "setting": "[21]", "value": 20, "unit": "nM"},
      {"measurement": "EC50", "setting": "[22]", "value": 3, "unit": "nM"},
      {"measurement": "EC50", "setting": "[23]", "value": 8, "unit": "nM"},
      {"measurement": "EC50", "setting": "[24]", "value": 76, "unit": "nM"},
      {"measurement": "EC50", "setting": "[25]", "value": 26, "unit": "nM"},
      {"measurement": "EC50", "setting": "[26]", "value": 109, "unit": "nM"},
      {"measurement": "EC50", "setting": "[27]", "value": 14, "unit": "nM"},
      {"measurement": "EC50", "setting": "[28]", "value": 7, "unit": "nM"},
      {"measurement": "EC50", "setting": "[29]", "value": 83, "unit": "nM"},
      {"measurement": "EC50", "setting": "[30]", "value": 3790, "unit": "nM"},
      {"measurement": "EC50", "setting": "[31]", "value": 8, "unit": "nM"}
    ]}
  ]
}
